Assay results: paper PMC6718988, “Bioactivity and Bactericidal Mechanism of Histidine-Rich β-Hairpin Peptide Against Gram-Negative Bacteria” (International Journal of Molecular Sciences, 2019)
Values after ≈ are worked out from the molar mass of the structure shown. Like-named read-outs stand apart in the source and are kept apart here. Where a SMILES comes first, the peptide text is derived from it. [ ]: non-standard residue; d: D form.

Experiments:
[1] = test system: Gram-positive and Gram-negative bacteria
Description: (§1) The minimum inhibitory concentration (MIC) was measured using a broth microdilution method to determine the in vitro antimicrobial activity of the peptides. Bacteria were inoculated into MHB and incubated overnight at 37 °C until the bacteria were in log phase growth. Next, we corrected the bacterial concentration to approximately 1 × 10^5 CFU/mL using MHB. The peptides were added to 96-well plates containing 0.01% acetic acid and 0.2% bovine serum albumin at final concentrations ranging from 0.25 to 128 μM. After incubation at 37 °C for 24 h, the absorbance was measured at 492 nm using a microplate reader (Tecan GENios F129004, Tecan, Austria). Broth containing microbes and […] were used as positive and negative controls, respectively. The lowest peptide concentration with no increase in absorbance compared to that of the negative control was defined as the MIC. The experiments were independently performed three times.

Gram-positive bacteria = test system: Gram-positive bacteria
Description: as §1

[2] = LPS binding assay (BODIPY-TR-cadaverine displacement); parameters: species or system E. coli; details: peptide concentration higher than 4 μM; 50 μg/mL LPS, 5 μg/mL BODIPY-TR cadaverine, Tris 50 mM pH 7.4; 100% = 10 μg/mL polymyxin B
Description: The abilities of the antimicrobial peptides to bind LPS were determined using the fluorescent dye BODIPY-TR-cadaverine (BC) substitution method. LPS (50 μg/mL) from E. coli O111:B4 was incubated with BC (5 μg/mL) in Tris buffer (50 mm, pH 7.4) for 4 h. Next, 50 μL of various concentrations of peptides (final concentration of 1–64 μM) and 50 μL of LPS-BC mixture were added to 96-well plates, and the fluorescence was measured using a fluorescence spectrophotometer (Infinite 200 pro, Tecan, China) at an excitation wavelength of 580 nm and an emission wavelength of 620 nm. Each test was performed three times. The values were converted to %∆F (AU) using the following equation:%ΔF (AU) = [(Fobs − F0)/(F100 − F0)] × 100 where Fobs is the fluorescence value measured in the presence of the peptide, F0 is the initial fluorescence of LPS with BC without the addition of peptides, F100 is the fluorescence value produced by adding 10 μg/mL polymyxin B.

[3] = RP-HPLC retention time as measure of hydrophobicity; assay type: physicochemical; details: analytical Kromasil C18 column 4.6 mm × 250 mm, 5.0 μm, acetonitrile, flow 1.0 mL/min, used as measure of hydrophobicity
Description: The hydrophobicities of the peptides in solution were reliably mirrored by their high-performance liquid chromatography (HPLC)retention times. The retention times for peptide HI2, HW2, HV2, HF2, and PG-1 were 11.13, 10.55, 12.20, 18.06 and 12.56 min, respectively, indicating the following hydrophobic order: HF2 > PG-1 > HV2 > HI2 > HW2(Table 1).
The designed peptides were synthesized and purified by GL Biochem (Shanghai, China). Acetonitrile was used on an analytical Kromasil C18 column (4.6 mm × 250 mm, 5.0 μm, LC 3000, Beijing, China), and the purity of the peptides was determined to be greater than 95% via reversed-phase high-performance liquid chromatography (RP-HPLC) with a flow rate of 1.0 mL/min. The experimental molecular weights of the peptides were evaluated via ESI-MS analysis, and these values were very close to the calculated masses. Next, the peptides were dissolved in deionized water at a concentration of 2.56 mM, and the peptide solutions were stored at −20 °C.

Gram-negative bacteria = assay: MICs against Gram-negative strains (geometric mean, range); assay type: cell-based; details: for MBC (GM), geometric mean of MICs, Gram (−): Gram-negative strains, 256 μM used where no activity at 128 μM
Description: as §1

S. epidermidis ATCC12228 = assay: microbe, parasite or virus in culture
Description: as §1

E. coli K88 = assay: microbe, parasite or virus in culture
Description: as §1

[4] = test system: methicillin-resistant S. aureus ATCC43300; assay: microbe, parasite or virus in culture
Description: as §1

E. coli K99 = assay: microbe, parasite or virus in culture
Description: as §1

E. coli UB1005 = assay: microbe, parasite or virus in culture; details: UB1005, 24 h
Description: as §1

S. pullorum C7913 = assay: microbe, parasite or virus in culture
Description: as §1

P. aeruginosa ATCC27853 = assay: microbe, parasite or virus in culture
Description: as §1

S. aureus ATCC29213 = assay: microbe, parasite or virus in culture
Description: as §1

E. coli ATCC25922 = assay: microbe, parasite or virus in culture; details: ATCC25922, 24 h
Description: as §1

[5] = test system: human red blood cells (hRBCs); assay: Hemolytic activity; details: 1 h, OD 570 nm; for hemolysis rate: at the highest concentration (128 μM), 1% hRBC in PBS, 37 °C, 0.1% Triton X-100 positive control; for MHC, minimum hemolytic concentration: concentration causing 5% hemolysis of hRBC, 1% hRBC in PBS pH 7.4, 37 °C, repeated three times
Description: Briefly, collected human red blood cells (hRBCs) were washed three times with PBS (pH 7.4) and diluted to 1% in PBS. Next, equal volumes of blood cells were mixed with different peptide concentrations in 96-well plates followed by incubated at 37 °C for 1 h. The mixtures were centrifuged (1000 g, 5 min), and the supernatants were transferred to 96-well plates to measure the optical density (OD) at 570 nm. Untreated blood cells were used as negative controls, and 0.1% Triton X-100-treated blood cells were used as positive controls. The minimum peptide concentration corresponding to 5% hemolytic activity was defined as the minimal hemolytic concentration (MHC). These assays were independently repeated three times.

[6] = E. coli K88, MHB, about 1 × 10^5 CFU/mL, 37 °C, 24 h, three independent experiments
[7] = E. coli K99, MHB, about 1 × 10^5 CFU/mL, 37 °C, 24 h, three independent experiments

## N=C(N)NCCC[C@H](NC(=O)[C@H](CCCNC(=N)N)NC(=O)[C@H](Cc1c[nH]c2ccccc12)NC(=O)[C@H](Cc1c[nH]cn1)NC(=O)[C@H](Cc1c[nH]c2ccccc12)NC(=O)[C@H](Cc1c[nH]cn1)NC(=O)[C@H](Cc1c[nH]c2ccccc12)NC(=O)CNC(=O)[C@H]1CCCN1C(=O)[C@H](Cc1c[nH]c2ccccc12)NC(=O)[C@H](Cc1c[nH]cn1)NC(=O)[C@H](Cc1c[nH]c2ccccc12)NC(=O)[C@H](Cc1c[nH]cn1)NC(=O)[C@H](Cc1c[nH]c2ccccc12)NC(=O)[C@H](CCCNC(=N)N)NC(=O)[C@@H](N)CCCNC(=N)N)C(N)=O [HW2] (H-RRWHWHW[dP]GWHWHWRR-NH2; N-terminus assumed)
[1]; all strains, 256 μM used where no activity at 128 μM
  MBC (GM), geometric mean of MICs, Gram (+,−): 3.17 µM
Gram-positive bacteria; Gram-positive strains, 256 μM used where no activity at 128 μM
  MBC (GM), geometric mean of MICs, Gram (+): 2.52 µM
[2]
  LPS binding ability relative to binding activity of polymyxin B: higher than 60%
[3]
  Retention Time: 10.55 min
Gram-negative bacteria
  MBC (GM), geometric mean of MICs, Gram (−): 3.56 µM
S. epidermidis ATCC12228; ATCC12228, 24 h
  MIC: 2 µM (≈ 4.92 µg/mL)
E. coli K88; [6]
  MIC: 4 µM (≈ 9.85 µg/mL)
[4]; ATCC43300, 24 h
  MIC: 2 µM (≈ 4.92 µg/mL)
E. coli K99; [7]
  MIC: 4 µM (≈ 9.85 µg/mL)
E. coli UB1005
  MIC: 2 µM (≈ 4.92 µg/mL)
S. pullorum C7913; C7913, 24 h
  MIC: 2 µM (≈ 4.92 µg/mL)
P. aeruginosa ATCC27853; ATCC27853, 24 h
  MIC: 8 µM (≈ 19.7 µg/mL)
S. aureus ATCC29213; ATCC29213, 24 h
  MIC: 4 µM (≈ 9.85 µg/mL)
E. coli ATCC25922
  MIC: 4 µM (≈ 9.85 µg/mL)
[5]
  hemolysis rate: 15.58%
  MHC, minimum hemolytic concentration: 8 µM

## CNC(C)C1CCC(N)C(OC2C(N)CC(N)C(OC3OCC(C)(O)C(NC)C3O)C2O)O1 (stereo not drawn) [Gentamicin]
Gram-negative bacteria; read-out: MBC (GM), geometric mean of MICs, Gram (−)
  geometric mean MIC: 0.79 µM
S. epidermidis ATCC12228; Staphylococcus epidermidis, ATCC12228, 24 h
  MIC: 1 µM (≈ 0.478 µg/mL)
E. coli K88; Escherichia coli, K88, 24 h
  MIC: 1 µM (≈ 0.478 µg/mL)
[4]; Staphylococcus aureus, ATCC43300, 24 h
  MIC: 8 µM (≈ 3.82 µg/mL)
E. coli K99; Escherichia coli, K99, 24 h
  MIC: 0.5 µM (≈ 0.239 µg/mL)
E. coli UB1005; Escherichia coli
  MIC: 0.5 µM (≈ 0.239 µg/mL)
S. pullorum C7913; Salmonella enterica, PULLORUM, 24 h
  MIC: 1 µM (≈ 0.478 µg/mL)
P. aeruginosa ATCC27853; Pseudomonas aeruginosa, ATCC27853, 24 h
  MIC: 1 µM (≈ 0.478 µg/mL)
S. aureus ATCC29213; Staphylococcus aureus, ATCC29213, 24 h
  MIC: 1 µM (≈ 0.478 µg/mL)
E. coli ATCC25922; Escherichia coli
  MIC: 1 µM (≈ 0.478 µg/mL)

## CC[C@H](C)[C@H](NC(=O)CNC(=O)[C@H]1CCCN1C(=O)[C@@H](NC(=O)[C@H](Cc1c[nH]cn1)NC(=O)[C@@H](NC(=O)[C@H](Cc1c[nH]cn1)NC(=O)[C@@H](NC(=O)[C@H](CCCNC(=N)N)NC(=O)[C@@H](N)CCCNC(=N)N)[C@@H](C)CC)[C@@H](C)CC)[C@@H](C)CC)C(=O)N[C@@H](Cc1c[nH]cn1)C(=O)N[C@H](C(=O)N[C@@H](Cc1c[nH]cn1)C(=O)N[C@H](C(=O)N[C@@H](CCCNC(=N)N)C(=O)N[C@@H](CCCNC(=N)N)C(N)=O)[C@@H](C)CC)[C@@H](C)CC [HI2] (H-RRIHIHI[dP]GIHIHIRR-NH2; N-terminus assumed)
[1]; 24 h
  MBC (GM), geometric mean of MICs, Gram (+,−): 87.09 µM
Gram-positive bacteria; 24 h
  MBC (GM), geometric mean of MICs, Gram (+): 256 µM
[2]
  LPS binding ability relative to binding activity of polymyxin B: higher than 60%
[3]
  Retention Time: 11.13 min
Gram-negative bacteria
  MBC (GM), geometric mean of MICs, Gram (−): 50.80 µM
S. epidermidis ATCC12228; S.epidermidis 12228, MHB, about 1 × 10^5 CFU/mL, 37 °C, 24 h, three independent experiments
  MIC: >128 µM
E. coli K88; [6]
  MIC: 32 µM (≈ 64.8 µg/mL)
[4]; S.aureus 43300 (methicillin-resistant), MHB, about 1 × 10^5 CFU/mL, 37 °C, 24 h, three independent experiments
  MIC: >128 µM
E. coli K99; [7]
  MIC: >128 µM
E. coli UB1005
  MIC: 16 µM (≈ 32.4 µg/mL)
S. pullorum C7913; C7913, 24 h
  MIC: 16 µM (≈ 32.4 µg/mL)
P. aeruginosa ATCC27853; P. auruginosa 27853, MHB, about 1 × 10^5 CFU/mL, 37 °C, 24 h, three independent experiments
  MIC: >128 µM
S. aureus ATCC29213; S.aureus 29213, MHB, about 1 × 10^5 CFU/mL, 37 °C, 24 h, three independent experiments
  MIC: >128 µM
E. coli ATCC25922
  MIC: 32 µM (≈ 64.8 µg/mL)
[5]
  hemolysis rate: 3.4%
  MHC, minimum hemolytic concentration: >128 µM
